{"source": "patent US9376461B2", "about": "“Non-enzymatic synthesis of O-acetyl-ADP-ribose and analogues thereof” (GlaxoSmithKline LLC, priority 2011, dated 2016)", "origin": "cited, not measured here", "system": "starfish oocyte maturation", "details": "infusion (microinjection) of OAADPR, presumably as the mixture of 2′ and 3′ isomers", "data": [{"substance": "2′- and 3′-O-Acetyl-ADP-ribose [OAADPR]", "values": [{"measurement": "effect on starfish oocyte maturation", "value": "delayed or halted"}]}]}
